The source of these data is US10722514B2 (FLX Bio, Inc., priority 2017, dated 2020).

This experiment concerns the target T1, recombinant full-length USP7 (Homo sapiens, UniProt Q93009).
T1 construct: A 25 μl reaction volume containing recombinant full-length USP7 (62 pM)
The experiment in a line: USP7-mediated ubiquitin-rhodamine cleavage assay. The settings on record: recombinant full-length USP7 62 pM; ubiquitin-rhodamine 100 nM; 30-minute pre-incubation, 1 hour reaction at room temperature; read-out: Potency (USP7 IC50). The experiment is classed as biochemical. In a few lines: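 After compound and enzyme (62 pM) sat together 30 min at RT, 100 nM fluorogenic ubiquitin-rhodamine substrate was added for 1 h protected from light. Acetic acid quenched the reaction prior to the fluorescence read.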

The structures appear in SMILES notation.

T1 sequence (Q93009 whole entry): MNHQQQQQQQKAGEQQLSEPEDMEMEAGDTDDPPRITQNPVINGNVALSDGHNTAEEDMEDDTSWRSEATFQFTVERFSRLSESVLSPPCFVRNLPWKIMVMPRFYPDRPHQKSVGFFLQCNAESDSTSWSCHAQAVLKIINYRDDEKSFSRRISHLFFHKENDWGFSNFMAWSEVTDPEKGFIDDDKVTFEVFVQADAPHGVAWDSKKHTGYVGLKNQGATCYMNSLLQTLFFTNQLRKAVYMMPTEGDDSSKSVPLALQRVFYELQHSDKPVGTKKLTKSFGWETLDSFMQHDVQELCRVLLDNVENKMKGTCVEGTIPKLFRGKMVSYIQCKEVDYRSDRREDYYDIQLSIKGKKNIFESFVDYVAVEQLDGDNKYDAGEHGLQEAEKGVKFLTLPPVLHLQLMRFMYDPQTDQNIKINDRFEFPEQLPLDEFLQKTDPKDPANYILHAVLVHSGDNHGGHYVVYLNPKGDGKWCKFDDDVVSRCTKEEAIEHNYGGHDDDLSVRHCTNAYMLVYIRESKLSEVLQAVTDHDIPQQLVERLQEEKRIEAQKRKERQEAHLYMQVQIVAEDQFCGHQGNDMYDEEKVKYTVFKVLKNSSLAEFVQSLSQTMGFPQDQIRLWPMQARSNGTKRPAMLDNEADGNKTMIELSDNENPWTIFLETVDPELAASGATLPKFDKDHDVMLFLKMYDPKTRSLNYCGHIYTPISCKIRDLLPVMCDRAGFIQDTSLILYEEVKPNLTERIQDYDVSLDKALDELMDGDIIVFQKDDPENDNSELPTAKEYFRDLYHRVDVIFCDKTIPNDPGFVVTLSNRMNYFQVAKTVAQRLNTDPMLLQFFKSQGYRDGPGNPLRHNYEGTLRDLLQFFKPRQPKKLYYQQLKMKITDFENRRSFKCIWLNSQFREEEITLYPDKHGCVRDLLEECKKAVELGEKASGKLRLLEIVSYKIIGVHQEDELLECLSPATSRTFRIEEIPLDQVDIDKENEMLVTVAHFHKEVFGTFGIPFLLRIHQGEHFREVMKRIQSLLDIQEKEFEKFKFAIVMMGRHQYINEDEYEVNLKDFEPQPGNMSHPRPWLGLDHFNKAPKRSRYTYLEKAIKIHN

Regarding `Cc1cc(Cl)cc(-c2ccnc3cc(Cn4c(=O)ccn(C)c4=O)sc23)c1OC1CNCCC1(F)F` (centres unmarked) [Example 514, 3-[[7-[5-chloro-2-[(4,4-difluoro-3-piperidyl)oxy]-3-methyl-phenyl]thieno[3,2-b]pyridin-2-yl]methyl]-1-methyl-pyrimidine-2,4-dione; 2,2,2-trifluoroacetic acid], the IC50 is less than 1000 nM. With `Cc1cc(Cl)cc(-c2ccnc3cc(Cn4c(=O)cc(C(F)(F)F)n(C)c4=O)sc23)c1O[C@H]1CCCNC1` [Example 515, 3-[[7-[5-chloro-3-methyl-2-[[(3S)-3-piperidyl]oxy]phenyl]thieno[3,2-b]pyridin-2-yl]methyl]-1-methyl-6-(trifluoromethyl)pyrimidine-2,4-dione; 2,2,2-trifluoroacetic acid], the IC50 is less than 1000 nM.

On to `Cc1cc(Cl)cc(-c2ccnc3cc(Cn4c(=O)ccn(C)c4=O)sc23)c1OC1CC(N2CCOCC2)C1` (centres unmarked) [Example 516], for which the IC50 was less than 1000 nM.

As to `Cc1cc(Cl)cc(-c2ncnc3cc(Cn4c(=O)ccn(CC(F)(F)F)c4=O)sc23)c1O[C@H]1CCCNC1` [Example 517], the IC50 was less than 1000 nM. As for `Cc1cc(Cl)cc(-c2ccnc3cc(Cn4c(=O)ccn(C)c4=O)sc23)c1O[C@@H]1CC[C@@](C)(N)C1` [Example 518, 3-[[7-[2-[(1R,3R)-3-amino-3-methyl-cyclopentoxy]-5-chloro-3-methyl-phenyl]thieno[3,2-b]pyridin-2-yl]methyl]-1-methyl-pyrimidine-2,4-dione; 2,2,2-trifluoroacetic acid], the IC50 was less than 1000 nM. In the case of `Cc1cc(Cl)cc(-c2ccnc3cc(Cn4c(=O)ccn(C)c4=O)sc23)c1O[C@@H]1CC[C@](C)(N)C1` [Example 519, 3-[[7-[2-[(1R,3S)-3-amino-3-methyl-cyclopentoxy]-5-chloro-3-methyl-phenyl]thieno[3,2-b]pyridin-2-yl]methyl]-1-methyl-pyrimidine-2,4-dione; 2,2,2-trifluoroacetic acid], the IC50 was less than 1000 nM. As for `Cc1cc(Cl)cc(-c2ncnc3cc(Cn4c(=O)ccn(CC(F)(F)F)c4=O)sc23)c1O[C@@H]1CCNC[C@@H]1C` [Example 520, 3-[[4-[5-chloro-3-methyl-2-[[(3S,4R)-3-methyl-4-piperidyl]oxy]phenyl]thieno[3,2-d]pyrimidin-6-yl]methyl]-1-(2,2,2-trifluoroethyl)pyrimidine-2,4-dione], the IC50 was less than 1000 nM.

Turning to `Cc1cc(Cl)cc(-c2ncnc3cc(Cn4c(=O)ccn(CC(F)(F)F)c4=O)sc23)c1O[C@H]1CCCN(C)C1` [Example 521, 3-[[4-[5-chloro-3-methyl-2-[[(3S)-1-methyl-3-piperidyl]oxy]phenyl]thieno[3,2-d]pyrimidin-6-yl]methyl]-1-(2,2,2-trifluoroethyl)pyrimidine-2,4-dione], the IC50 is less than 1000 nM. To `Cc1cc(Cl)cc(-c2ccnc3cc(Cn4c(=O)ccn(C)c4=O)sc23)c1O[C@H]1CC[C@H](N)C1` [Example 522, 3-[[7-[2-[(1S,3S)-3-aminocylcopentoxy]-5-chloro-3-methyl-phenyl]thieno[3,2-b]pyridin-2-yl]methyl]-1-methyl-pyrimidine-2,4-dione; 2,2,2-trifluoroacetic acid] belongs less than 1000 nM. For the compound `Cc1cc(Cl)cc(-c2ccnc3cc(Cn4c(=O)ccn(C)c4=O)sc23)c1OC1CC[C@H](C)NC1` (stereo partly drawn) [Example 523, 3-[[7-[5-chloro-3-methyl-2-[[(6S)-6-methyl-3-piperidyl]oxy]phenyl]thieno[3,2-b]pyridin-2-yl]methyl]-1-methyl-pyrimidine-2,4-dione; 2,2,2-trifluoroacetic acid], the IC50 is less than 1000 nM. With `Cc1cc(Cl)cc(-c2ccnc3cc(Cn4c(=O)ccn(C)c4=O)sc23)c1O[C@@H]1CNC[C@H](C)C1` [Example 524, 3-[[7-[5-chloro-3-methyl-2-[[(3S,5R)-5-methyl-3-piperidyl]oxy]phenyl]thieno[3,2-b]pyridin-2-yl]methyl]-1-methyl-pyrimidine-2,4-dione], the IC50 is less than 1000 nM. On to `Cc1cc(Cl)cc(-c2ncnc3cc(Cn4c(=O)ccn(CC(F)(F)F)c4=O)sc23)c1O[C@@H]1CNC[C@@H]1F` [Example 525, 3-[[4-[5-chloro-2-[(3R,4S)-4-fluoropyrrolidin-3-yl]oxy-3-methyl-phenyl]thieno[3,2-d]pyrimidin-6-yl]methyl]-1-(2,2,2-trifluoroethyl)pyrimidine-2,4-dione], for which the IC50 was less than 1000 nM.

With `Cc1cc(Cl)cc(-c2ncnc3cc(Cn4c(=O)ccn(CC(F)(F)F)c4=O)sc23)c1OC1CC2CNC1C2` (centres unmarked) [Example 526, 3-[[4-[2-(3-azabicyclo[2.2.1]heptan-5-yloxy)-5-chloro-3-methyl-phenyl]thieno[3,2-d]pyrimidin-6-yl]methyl]-1-(2,2,2-trifluoroethyl)pyrimidine-2,4-dione], the IC50 was less than 1000 nM. Regarding `Cc1cc(Cl)cc(-c2ncnc3cc(Cn4c(=O)ccn(CC(F)(F)F)c4=O)sc23)c1OC1CCNCC1` [Example 527, 3-[[4-[5-chloro-3-methyl-2-(4-piperidyloxy)phenyl]thieno[3,2-d]pyrimidin-6-yl]methyl]-1-(2,2,2-trifluoroethyl)pyrimidine-2,4-dione], the IC50 is less than 1000 nM. For the compound `Cc1cc(Cl)cc(-c2ncnc3cc(Cn4c(=O)ccn(CC(F)(F)F)c4=O)sc23)c1O[C@@H]1CCN(C)C[C@@H]1C` [Example 528, 3-[[4-[5-chloro-2-[[(3S,4R)-1,3-dimethyl-4-piperidyl]oxy]-3-methyl-phenyl]thieno[3,2-d]pyrimidin-6-yl]methyl]-1-(2,2,2-trifluoroethyl)pyrimidine-2,4-dione], the half-maximal inhibitory concentration (IC50) was less than 1000 nM. Next, `Cc1cc(Cl)cc(-c2ccnc3cc(Cn4c(=O)ccn(C)c4=O)sc23)c1OC1CN2CCC1C2` [Example 529, 3-[[7-[2-[[(1R,3R,4S)-1-azabicyclo[2.2.1]heptan-3-yl]oxy]-5-chloro-3-methyl-phenyl]thieno[3,2-b]pyridin-2-yl]methyl]-1-methyl-pyrimidine-2,4-dione]: less than 1000 nM. Consider `Cc1cc(Cl)cc(-c2ccnc3cc(Cn4c(=O)ccn(C)c4=O)sc23)c1OC1CN2CCC1C2` [Example 530, 3-[[7-[2-[[(1R,3S,4S)-1-azabicyclo[2.2.1]heptan-3-yl]oxy]-5-chloro-3-methyl-phenyl]thieno[3,2-b]pyridin-2-yl]methyl]-1-methyl-pyrimidine-2,4-dione], for which the half-inhibitory concentration (IC50) is less than 1000 nM.

Turning to `Cc1cc(Cl)cc(-c2ccnc3cc(Cn4c(=O)ccn(C)c4=O)sc23)c1O[C@@H]1CC[C@@H](NCCO)C1` [Example 531, 3-[[7-[5-chloro-2-[(1R,3R)-3-(2-hydroxyethylamino)cyclopentoxy]-3-methyl-phenyl]thieno[3,2-b]pyridin-2-yl]methyl]-1-methyl-pyrimidine-2,4-dione; 2,2,2-trifluoroacetic acid], the IC50 was less than 1000 nM. Regarding `Cc1cc(Cl)cc(-c2ccnc3cc(Cn4c(=O)ccn(C)c4=O)sc23)c1OC1CC(NCCO)C1` (centres unmarked) [Example 532, 3-[[7-[5-chloro-2-[3-(2-hydroxyethylamino)cyclobutoxy]-3-methyl-phenyl]thieno[3,2-b]pyridin-2-yl]methyl]-1-methyl-pyrimidine-2,4-dione; 2,2,2-trifluoroacetic acid], the IC50 was less than 1000 nM. With `Cc1cc(Cl)cc(-c2ccnc3cc(Cn4c(=O)ccn(C)c4=O)sc23)c1OCC1(C(F)F)CNC1` [Example 533, 3-[[7-[5-chloro-2-[[3-(difluoromethyl)azetidin-3-yl]methoxy]-3-methyl-phenyl]thieno[3,2-b]pyridin-2-yl]methyl]-1-methyl-pyrimidine-2,4-dione], the IC50 is less than 1000 nM.

For the compound `Cc1cc(Cl)cc(-c2ncnc3cc(Cn4c(=O)ccn(CC(F)(F)F)c4=O)sc23)c1OC1CC(N)C1` (centres unmarked) [Example 534, 3-[[4-[2-(3-aminocyclobutoxy)-5-chloro-3-methyl-phenyl]thieno[3,2-d]pyrimidin-6-yl]methyl]-1-(2,2,2-trifluoroethyl)pyrimidine-2,4-dione; 2,2,2-trifluoroacetic acid], the IC50 was less than 1000 nM. Consider `Cc1cc(Cl)cc(-c2ccnc3cc(Cn4c(=O)ccn(CC(F)(F)F)c4=O)sc23)c1OC1CC2CNC1C2` (centres unmarked) [Example 535, 3-[[7-[2-(3-azabicyclo[2.2.1]heptan-5-yloxy)-5-chloro-3-methyl-phenyl]thieno[3,2-b]pyridin-2-yl]methyl]-1-(2,2,2-trifluoroethyl)pyrimidine-2,4-dione], for which the IC50 was less than 1000 nM. For `Cc1cc(Cl)cc(-c2ccnc3cc(Cn4c(=O)ccn(C)c4=O)sc23)c1O[C@@H]1CNCC(C)(C)C1` [Example 536, 3-[[7-[5-chloro-2-[[(3S)-5-dimethyl-3-piperidyl]oxy]-3-methyl-phenyl]thieno[3,2-b]pyridin-2-yl]methyl]-1-methyl-pyrimidine-2,4-dione; 2,2,2-trifluoroacetic acid], the IC50 was less than 1000 nM.

For `Cc1cc(Cl)cc(-c2ccnc3cc(Cn4c(=O)ccn(C)c4=O)sc23)c1O[C@H]1CNC[C@H](C)C1` [Example 537, 3-[[7-[5-chloro-3-methyl-2-[[(3R,5R)-5-methyl-3-piperidyl]oxy]phenyl]thieno[3,2-b]pyridin-2-yl]methyl]-1-methyl-pyrimidine-2,4-dione], the IC50 is less than 1000 nM. Next, `Cc1cc(Cl)cc(-c2ccnc3cc(Cn4c(=O)ccn(C)c4=O)sc23)c1OC1C(C)(C)C(N)C1(C)C` (centres unmarked) [Example 538, 3-[[7-[2-(3-amino-2,2,4,4-tetramethyl-cyclobutoxy)-5-chloro-3-methyl-phenyl]thieno[3,2-b]pyridin-2-yl]methyl]-1-methyl-pyrimidine-2,4-dione]: less than 1000 nM; `Cc1cc(Cl)cc(-c2ncnc3cc(Cn4c(=O)ccn(CC(F)(F)F)c4=O)sc23)c1OC1CC2CNC1C2` (centres unmarked) [Example 539, 3-[[4-[2-(3-azabicyclo[2.2.1]heptan-5-yloxy)-5-chloro-3-methyl-phenyl]thieno[3,2-d]pyrimidin-6-yl]methyl]-1-(2,2,2-trifluoroethyl)pyrimidine-2,4-dione]: less than 1000 nM.

In general, IC50 refers to the concentration needed to halve the response being measured.
